Tests used:
McpB signaling domain = McpB signaling domain (Bacillus subtilis, UniProt P39215); details: 20 µM protein, 2 mM benzene, PBS in D2O pH 7.4, 298 K
[1] = target: McpA signaling domain (McpAc) (Bacillus subtilis, UniProt P39214); experiment: biochemical
Sequence of McpA signaling domain (McpAc) (P39214 359-661): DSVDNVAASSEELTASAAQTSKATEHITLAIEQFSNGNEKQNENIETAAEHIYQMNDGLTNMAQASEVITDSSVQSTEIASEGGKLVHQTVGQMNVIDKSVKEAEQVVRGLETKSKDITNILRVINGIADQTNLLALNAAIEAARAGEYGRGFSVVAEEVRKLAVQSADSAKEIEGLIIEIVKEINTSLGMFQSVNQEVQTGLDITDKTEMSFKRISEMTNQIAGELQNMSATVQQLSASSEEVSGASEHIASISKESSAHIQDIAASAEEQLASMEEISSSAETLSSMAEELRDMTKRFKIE

Sequence of McpB signaling domain (P39215 359-662): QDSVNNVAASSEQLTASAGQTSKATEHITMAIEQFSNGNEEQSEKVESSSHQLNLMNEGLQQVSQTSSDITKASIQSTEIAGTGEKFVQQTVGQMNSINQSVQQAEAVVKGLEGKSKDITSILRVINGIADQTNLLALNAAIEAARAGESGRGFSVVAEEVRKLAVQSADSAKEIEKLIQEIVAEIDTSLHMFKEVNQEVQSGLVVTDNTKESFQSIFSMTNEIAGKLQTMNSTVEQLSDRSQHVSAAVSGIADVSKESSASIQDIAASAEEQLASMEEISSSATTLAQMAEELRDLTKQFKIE

| SMILES | STD-AF (McpB signaling domain) | Kd [1] |
| --- | --- | --- |
| c1ccccc1 [benzene] | 16.4% |  |
| Oc1ccccc1 [phenol] |  | 4.8 mM |
